Assay results: patent publication US20260042762A1 (Kymera Therapeutics, Inc., priority 2018, published 2026)

Molecular target: T1, MerTK (Homo sapiens, UniProt Q12866)
T1 construct: endogenous in cells; host or cells: Jurkat cells
T1 sequence (Q12866 21-999): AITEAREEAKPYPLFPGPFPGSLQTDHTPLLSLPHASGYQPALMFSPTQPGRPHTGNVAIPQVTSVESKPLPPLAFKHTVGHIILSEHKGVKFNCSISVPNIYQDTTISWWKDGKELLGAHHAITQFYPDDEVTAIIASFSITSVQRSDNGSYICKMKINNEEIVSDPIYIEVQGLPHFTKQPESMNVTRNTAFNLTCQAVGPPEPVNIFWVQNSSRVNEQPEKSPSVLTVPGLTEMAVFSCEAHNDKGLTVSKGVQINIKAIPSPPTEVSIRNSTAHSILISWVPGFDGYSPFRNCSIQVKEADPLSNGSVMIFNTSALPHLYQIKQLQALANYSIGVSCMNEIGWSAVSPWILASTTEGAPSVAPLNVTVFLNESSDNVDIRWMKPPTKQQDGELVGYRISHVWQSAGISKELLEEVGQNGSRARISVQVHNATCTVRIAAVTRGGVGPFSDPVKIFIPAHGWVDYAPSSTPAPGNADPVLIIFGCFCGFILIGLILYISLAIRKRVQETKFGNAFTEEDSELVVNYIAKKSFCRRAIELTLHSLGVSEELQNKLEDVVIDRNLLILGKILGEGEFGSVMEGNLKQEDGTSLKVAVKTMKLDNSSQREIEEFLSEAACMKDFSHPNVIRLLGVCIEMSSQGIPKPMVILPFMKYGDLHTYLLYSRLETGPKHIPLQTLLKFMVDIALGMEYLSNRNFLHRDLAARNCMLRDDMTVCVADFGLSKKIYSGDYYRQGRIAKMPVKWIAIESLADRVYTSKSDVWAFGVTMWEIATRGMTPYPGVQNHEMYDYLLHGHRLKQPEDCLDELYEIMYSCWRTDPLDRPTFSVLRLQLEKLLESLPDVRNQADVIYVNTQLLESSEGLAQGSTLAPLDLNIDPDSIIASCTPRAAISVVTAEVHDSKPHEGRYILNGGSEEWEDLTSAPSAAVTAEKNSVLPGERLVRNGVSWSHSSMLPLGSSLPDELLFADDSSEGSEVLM
Test: MerTk degradation in Jurkat cells (Western blot)
Format: cell-based
Conditions: Jurkat, 4 h, 0.001-1 μM, 4 hour-incubation at 37° C., read-out: Jurkat Max % MerTK Degradation
Summary of the method: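 MerTK degradation was read by near-infrared Western blot, normalized to actin, in BCA-quantified lysates of Jurkat cells exposed to 0.001-1 μM compound for 4 h at 37 °C.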

Dmax [%]	Structure (SMILES)
> 50	Cn1c(=O)n([C@H]2CCC(=O)NC2=O)c2ccc(CCOC3CN(C4CCN(Cc5ccc(-c6cn([C@H]7CC[C@H](O)CC7)c7nc(NCCC(F)(F)F)ncc67)cc5)CC4)C3)cc21 [I-144, 3-(3-methyl-2-oxo-5-[2-[(1-[1-[(4-[7-[trans-4-hydroxycyclohexy1]-2-[(3,3,3-trifluoropropyl)amino]pyrrolo[2,3-d]pyrimidin-5-yl]phenyl)methyl]piperidin-4-yl]azetidin-3-yl)oxy]ethyl]-1,3-benzodiazol-1-yl)piperidine-2,6-dione; formic acid]
> 50	Cn1c(=O)n([C@H]2CCC(=O)NC2=O)c2ccc(CCCC3CCN(C4CCN(Cc5ccc(-c6cn([C@H]7CC[C@H](O)CC7)c7nc(NCCC(F)(F)F)ncc67)cc5)CC4)CC3)cc21 [I-145, 3-[3-methyl-2-oxo-5-(3-[1-[(4-[7-[trans-4-hydroxycyclohexyl]-2-[(3,3,3-trifluoropropyl)amino]pyrrolo[2,3-d]pyrimidin-5-yl]phenyl)methyl]-[1,4-bipiperidin]-4-yl]propyl)-1,3-benzodiazol-1-y1]piperidine-2,6-dione; formic acid]
> 50	Cn1c(=O)n([C@H]2CCC(=O)NC2=O)c2ccc(CCOCCN3CCN(Cc4cccc(-c5cn([C@H]6CC[C@H](O)CC6)c6nc(NCCC(F)(F)F)ncc56)c4)CC3)cc21 [I-146, 3-[3-methyl-2-oxo-5-[2-(2-[4-[(3-[7-[trans-4-hydroxycyclohexy1]-2-[(3,3,3-trifluoropropyl)amino]pyrrolo[2,3-d]pyrimidin-5-yl]phenyl)methyl]piperazin-1-yl]ethoxy)ethyl]-1,3-benzodiazol-1-yl]piperidine-2,6-dione]
> 50	Cn1c(=O)n([C@H]2CCC(=O)NC2=O)c2ccc(COCCCN3CCN(Cc4ccc(-c5cn([C@H]6CC[C@H](O)CC6)c6nc(NCCC(F)(F)F)ncc56)cc4)CC3)cc21 [I-149, 3-[3-methyl-2-oxo-5-[(3-[4-[(4-[7-[trans-4-hydroxycyclohexy1]-2-[(3,3,3-trifluoropropyl)amino]pyrrolo[2,3-d]pyrimidin-5-yl]phenyl)methyl]piperazin-1-yl]propoxy)methyl]-1,3-benzodiazol-1-y1]piperidine-2,6-dione; formic acid]
> 50	Cn1c(=O)n([C@H]2CCC(=O)NC2=O)c2ccc(COCCN3CCN(Cc4ccc(-c5cn([C@H]6CC[C@H](O)CC6)c6nc(NCCC(F)(F)F)ncc56)cc4)CC3)cc21 [I-151, trans-3-[3-methyl-2-oxo-5-[(2-[4-[(4-[7-[4-hydroxycyclohexy1]-2-[(3,3,3-trifluoropropyl)amino]pyrrolo[2,3-d]pyrimidin-5-y1]phenyl)methyl]piperazin-1-yl]ethoxy)methyl]-1,3-benzodiazol-1-yl]piperidine-2,6-dione; formic acid]
> 50	Cn1c(=O)n([C@H]2CCC(=O)NC2=O)c2ccc(CCOC3CCN(C4CCN(Cc5ccc(-c6cn([C@H]7CC[C@H](O)CC7)c7nc(NCCC(F)(F)F)ncc67)cc5)CC4)CC3)cc21 [I-155, 3-[3-methyl-2-oxo-5-[2-([1-[(4-[7-[trans-4-hydroxycyclohexy1]-2-[(3,3,3-trifluoropropyl)amino]pyrrolo[2,3-d]pyrimidin-5-yl]phenyl)methyl]-[1,4-bipiperidin]-4-yl]oxy)ethyl]-1,3-benzodiazol-1-yl]piperidine-2,6-dione; formic acid]

The next lines start with the compound.

Structure (SMILES)	Dmax [%]
Cn1c(=O)n([C@H]2CCC(=O)NC2=O)c2ccc(CCCOCCCN3CCN(Cc4cn([C@H]5CC[C@H](O)CC5)c5nc(NCCC(F)(F)F)ncc45)CC3)cc21 [I-140, 3-[3-methyl-2-oxo-5-(3-[3-[4-([7-[trans-4-hydroxycyclohexy1]-2-[(3,3,3-trifluoropropyl)amino]pyrrolo[2,3-d]pyrimidin-5-yl]methyl)piperazin-1-yl]propoxy]propyl)-1,3-benzodiazol-1-yl]piperidine-2,6-dione; formic acid]	20 to 50
Cn1c(=O)n([C@H]2CCC(=O)NC2=O)c2ccc(CCCOCCCN3CCN(Cc4ccc(-c5cn([C@H]6CC[C@@](C)(O)CC6)c6nc(NCCC(F)(F)F)ncc56)cc4)CC3)cc21 [I-141, 3-[3-methyl-2-oxo-5-[3-(3-[4-[(4-[7-[cis-4-hydroxy-4-methylcyclohexyl]-2-[(3,3,3-trifluoropropyl)amino]pyrrolo[2,3-d]pyrimidin-5-y1]phenyl)methyl]piperazin-1-yl]propoxy)propyl]-1,3-benzodiazol-1-yl]piperidine-2,6-dione]	> 50
Cn1c(=O)n([C@H]2CCC(=O)NC2=O)c2ccc(CCCOCCCN3CCN(Cc4ccc(-c5cn([C@H]6CC[C@](C)(O)CC6)c6nc(NCCC(F)(F)F)ncc56)cc4)CC3)cc21 [I-142, 3-[3-methyl-2-oxo-5-[3-(3-[4-[(4-[7-[trans-4-hydroxy-4-methylcyclohexyl]-2-[(3,3,3-trifluoropropyl)amino]pyrrolo[2,3-d]pyrimidin-5-yl]phenyl)methyl]piperazin-1-yl]propoxy)propyl]-1,3-benzodiazol-1-yl]piperidine-2,6-dione]	> 50
Cn1c(=O)n([C@H]2CCC(=O)NC2=O)c2ccc(CCO[C@H]3C[C@@H](N4CCN(Cc5ccc(-c6cn([C@H]7CC[C@H](O)CC7)c7nc(NCCC(F)(F)F)ncc67)cc5)CC4)C3)cc21 [I-143, 3-[3-methyl-2-oxo-5-[2-(3-[4-[(4-[7-[trans-4-hydroxycyclohexyl]-2-[(3,3,3-trifluoropropyl)amino]pyrrolo[2,3-d]pyrimidin-5-yl]phenyl)methyl]piperazin-1-yl]cyclobutoxy)ethyl]-1,3-benzodiazol-1-yl]piperidine-2,6-dione; formic acid]	> 50
Cn1c(=O)n([C@H]2CCC(=O)NC2=O)c2ccc(CCOCCN3CCN(Cc4cn([C@H]5CC[C@H](O)CC5)c5nc(NCCC(F)(F)F)ncc45)CC3)cc21 [I-147, 3-[3-methyl-2-oxo-5-(2-[2-[4-([7-[(1r,4r)-4-hydroxycyclohexyl]-2-[(3,3,3-trifluoropropyl)amino]pyrrolo[2,3-d]pyrimidin-5-y1]methyl)piperazin-1-yl]ethoxy]ethyl)-1,3-benzodiazol-1-yl]piperidine-2,6-dione]	< 20
Cn1c(=O)n([C@H]2CCC(=O)NC2=O)c2cccc(COCCCN3CCN(Cc4ccc(-c5cn([C@H]6CC[C@H](O)CC6)c6nc(NCCC(F)(F)F)ncc56)cc4)CC3)c21 [I-150, 3-[3-methyl-2-oxo-4-[(3-[4-[(4-[7-[trans-4-hydroxycyclohexyl]-2-[(3,3,3-trifluoropropyl)amino]pyrrolo[2,3-d]pyrimidin-5-yl]phenyl)methyl]piperazin-1-y1]propoxy)methyl]-1,3-benzodiazol-1-yl]piperidine-2,6-dione]	> 50
Cn1c(=O)n([C@H]2CCC(=O)NC2=O)c2cccc(COCCN3CCN(Cc4ccc(-c5cn([C@H]6CC[C@H](O)CC6)c6nc(NCCC(F)(F)F)ncc56)cc4)CC3)c21 [I-152, 3-[3-methyl-2-oxo-4-[(2-[4-[(4-[7-[trans-4-hydroxycyclohexyl]-2-[(3,3,3-trifluoropropyl)amino]pyrrolo[2,3-d]pyrimidin-5-yl]phenyl)methyl]piperazin-1-yl]ethoxy)methyl]-1,3-benzodiazol-1-yl]piperidine-2,6-dione; bis(formic acid)]	> 50
Cn1c(=O)n([C@H]2CCC(=O)NC2=O)c2ccc(CCCOCCOCCN3CCN(C[C@H]4CC[C@@H](c5cn([C@H]6CC[C@H](O)CC6)c6nc(NCCC(F)(F)F)ncc65)CC4)CC3)cc21 [I-153, 3-[3-methyl-2-oxo-5-(3-[2-[2-(4-[[(1s,4s)-4-[7-[trans-4-hydroxycyclohexyl]-2-[(3,3,3-trifluoropropyl)amino]pyrrolo[2,3-d]pyrimidin-5-yl]cyclohexyl]methyl]piperazin-1-yl)ethoxy]ethoxy]propyl)-1,3-benzodiazol-1-yl]piperidine-2,6-dione]	> 50
Cn1c(=O)n([C@H]2CCC(=O)NC2=O)c2ccc(CCCOCCOCCN3CCN(C[C@H]4CC[C@H](c5cn([C@H]6CC[C@H](O)CC6)c6nc(NCCC(F)(F)F)ncc65)CC4)CC3)cc21 [I-154, 3-[3-methyl-2-oxo-5-(3-[2-[2-(4-[[(1r,4r)-4-[7-[trans-4-hydroxycyclohexyl]-2-[(3,3,3-trifluoropropyl)amino]pyrrolo[2,3-d]pyrimidin-5-y1]cyclohexyl]methyl]piperazin-1-y1)ethoxy]ethoxy]propyl)-1,3-benzodiazol-1-yl]piperidine-2,6-dione]	> 50
